Consider 51 molecules from PubChem BioAssay AID1996.

As a reminder, the solubility (kinetic) is the concentration staying in solution when a stock, usually in DMSO, is diluted into the medium.

Values after ≈ are worked out from the molar mass of the structure shown. Bounds are passed on as bounds.

The conditions of the series: buffer; pH 7.4; 200.0 µM.
The molecule `Cc1cc(=O)n(C(C)(C)C)c(=O)n1Cc1ccccc1` came in with a kinetic solubility above 40.9 µg/mL.

`Cc1cc(OCCN2CCOCC2)ccc1Cl` displayed a solubility (kinetic) of 25.9 µg/mL (≈ 101 µM).

`O=C(NCCCn1ccnc1)C(=O)c1c[nH]c2ccccc12`: the kinetic solubility was above 44.4 µg/mL.

For the molecule `Cc1ccc(C(=O)O/N=C(\N)c2ccccn2)cc1`, the kinetic solubility amounted to 6.9 µg/mL (≈ 27 µM).

Consider `CCc1ccc(OC)c(-c2csc(N)n2)c1`, for which the solubility (kinetic) is above 35.1 µg/mL.

In turn, `COc1ccccc1-c1c(NC(=O)C(C)C)n(C)c2ccccc2c1=O` yielded a solubility (kinetic) above 52.6 µg/mL.

`O=C(Nc1cccc(S(=O)(=O)N2CCCCC2)c1)c1cncc(Br)c1`: the kinetic solubility stood at 31.6 µg/mL (≈ 74.5 µM).

Molecule `CC(C)(C)C(=O)Nc1ccc(N2CCN(S(C)(=O)=O)CC2)cc1` had a solubility (kinetic) of 17.6 µg/mL (≈ 51.8 µM). Compared with the last molecule, the solubility kinetic is about 1.8-fold lower.

In the case of `Cc1cc(C)c(S(=O)(=O)NCc2cccnc2)c(C)c1`, the solubility (kinetic) was above 43.6 µg/mL.

`Cc1ccc(C)c(NC(=O)CN(C)C(=O)c2ccc(Cl)nc2)c1` gave a kinetic solubility above 49.8 µg/mL.

As to `C=CCNC(=O)C(C)N1c2cccc3cccc(c23)S1(=O)=O` (stereo unspecified), the solubility (kinetic) is above 47.5 µg/mL.

In the case of `NC(=O)CN1CCN(c2cccc(Cl)c2)CC1`, the kinetic solubility turned out to be 33.9 µg/mL (≈ 134 µM).

As to `Fc1ccccc1-c1nc2ncccc2o1`, the kinetic solubility is 31 µg/mL (≈ 145 µM).

`CC1CCN(C(=O)CCN2C(=O)C3C4C=CC(C4)C3C2=O)CC1` (stereo unspecified) registered a kinetic solubility above 47.5 µg/mL.

For the molecule `Brc1ccc(C2=CSC3=NCCN23)cc1`, the kinetic solubility turned out to be 28.9 µg/mL (≈ 103 µM).

`Cc1ccc(C)c(NC(=O)CN(C)C(=O)c2cccc(Oc3ccccc3)c2)c1` returned a kinetic solubility of 31.1 µg/mL (≈ 80.1 µM).

The molecule `O=C(Nc1ccccc1C(=O)NC1CC1)c1ccccc1F` had a solubility (kinetic) of 44.6 µg/mL (≈ 150 µM).

For the molecule `CCN(CC(=O)NC(=O)NCc1ccccc1)Cc1ccccc1`, the kinetic solubility stood at 40.9 µg/mL (≈ 126 µM).

With `CC(C)(C)c1ccc(C(=O)NC(=S)N2CCOCC2)cc1`, the kinetic solubility was above 46 µg/mL.

With `CCOC(=O)Cn1c(=O)oc2ccc(C)cc21`, the solubility (kinetic) is above 35.3 µg/mL.

In turn, `CC1(C)CC2CC(C)(CN2C(=O)c2cc(-c3ccccc3)on2)C1` (stereo unspecified) came in with a solubility (kinetic) of 3.3 µg/mL (≈ 10.2 µM).

`O=C(/C=C/c1cc(Br)ccc1F)OCC(=O)N1CCOCC1`: the kinetic solubility was above 55.8 µg/mL.

Consider `O=C(CCC(=O)Nc1ccc(F)cc1)N/N=C/c1cccnc1`, for which the solubility (kinetic) is above 47.1 µg/mL.

With `Cn1c(N)c(C(=O)COC(=O)Cc2cccs2)c(=O)n(C)c1=O`, the kinetic solubility is above 50.6 µg/mL.

Turning to `COc1ccc(N2CCN(Cc3nc4ccccc4[nH]3)CC2)cc1`, the solubility (kinetic) is above 48.4 µg/mL.

`CCOCc1c(C(=O)NCC(c2ccco2)N2CCCC2)oc2ccccc12` (stereo unspecified) had a kinetic solubility of 56.2 µg/mL (≈ 147 µM).

`Cc1cc(-c2nc3ccccc3c(=O)o2)ccc1[N+](=O)[O-]` showed a kinetic solubility below 0.3 µg/mL.

With `COc1ccc(CN(C)C(=O)c2ccc(NS(=O)(=O)c3ccc4[nH]c(=O)[nH]c4c3)cc2)c(OC)c1OC`, the solubility (kinetic) was above 79 µg/mL.

With `COc1ccc(C(=O)CSc2nccn2C)cc1`, the kinetic solubility came out at 35.1 µg/mL (≈ 134 µM).

`C[n+]1cccc(/C=N/Nc2nc(Cl)c(C#N)c(Cl)c2Cl)c1.[Cl-]`: the solubility (kinetic) is above 56.6 µg/mL.

`Cc1ccc(S(=O)(=O)CCN2CCN(c3ccccn3)CC2)cc1` registered a kinetic solubility above 51.8 µg/mL.

Take `Cc1cc(NC(=O)CSc2nnc(C)o2)no1`: the solubility (kinetic) is above 38.1 µg/mL.

For the molecule `CCN(C(=O)COC(=O)c1ccccc1O)c1cccc2ccccc12`, the solubility (kinetic) amounted to 3.5 µg/mL (≈ 10 µM).

In the case of `C=CCN(c1ccccc1OC)S(=O)(=O)c1cccc(C(=O)OC2CCOC2=O)c1` (stereo unspecified), the solubility (kinetic) turned out to be 56.7 µg/mL (≈ 131 µM).

For the molecule `Cc1cc(C(=O)COC(=O)c2ccc(F)cc2)c(C)n1C`, the kinetic solubility was found to be 1.2 µg/mL (≈ 4.15 µM).

`COc1ccc(C2=NC(C)(C)Cc3cc(OC)c(OC)cc32)cc1` had a kinetic solubility above 48.8 µg/mL.

On to `Cc1nc(Nc2cccc(F)c2)c2oc3ccccc3c2n1`, for which the kinetic solubility is below 0.2 µg/mL.

In the case of `Cc1onc(-c2c(F)cccc2Cl)c1C(=O)NCCO`, the kinetic solubility is above 44.8 µg/mL.

Turning to `Cc1ccc(S(=O)(=O)NCCN2CCOCC2)s1`, the solubility (kinetic) was above 43.6 µg/mL.

The molecule `CC(c1ccccc1)N1C(=O)OC(C)(C)C1(C)O` (stereo unspecified) gave a solubility (kinetic) above 37.4 µg/mL.

`O=C(O)c1ccc(Cl)c(NCc2cccs2)c1`: the kinetic solubility worked out at 34.8 µg/mL (≈ 130 µM).

As to `Cc1cccc(C)c1N1C(=O)CC(N2CCSCC2)C1=O` (stereo unspecified), the kinetic solubility was above 45.7 µg/mL.

In turn, `O=Cc1sc(N2CCOCC2)nc1-c1ccccc1` registered a solubility (kinetic) of 4.5 µg/mL (≈ 16.4 µM).

In turn, `COc1ccc(C(=O)Nc2ccncc2)cc1[N+](=O)[O-]` showed a solubility (kinetic) of 36 µg/mL (≈ 132 µM). Against the preceding molecule, the solubility kinetic is about 8-fold higher.

On to `CC(C)CC(=O)Nc1cc2c3c(c1)C(C)C(=O)N3CCC2` (stereo unspecified), for which the solubility (kinetic) was above 43 µg/mL.

Take `Cc1cc(S(=O)(=O)Nc2cccc(Cl)c2)c(C)s1`: the kinetic solubility amounted to 37.4 µg/mL (≈ 124 µM).

The molecule `CCC(=O)N(Cc1cc(=O)[nH]c2ccccc12)c1ccc(OC)cc1` displayed a kinetic solubility of 47.1 µg/mL (≈ 140 µM).

In the case of `Cn1c(=O)c2c(ncn2CC(=O)Nc2cc(S(=O)(=O)N3CCCCC3)ccc2Cl)n(C)c1=O`, the solubility (kinetic) stood at 10.5 µg/mL (≈ 21.2 µM).

In turn, `O=C(O)Cc1sc(NC2CCCCC2)nc1-c1ccc(Cl)cc1` registered a kinetic solubility above 52.6 µg/mL.

Molecule `COc1ccc(C(=O)O/N=C(\N)c2ccc(Cl)cc2)cc1` came in with a kinetic solubility of 0.4 µg/mL (≈ 1.31 µM).

Take `COc1ccc(NC(=S)NCCCN2CCOCC2)cc1`: the solubility (kinetic) was above 46.4 µg/mL.
